Consider one compound from patent publication US8048454B2, “Methods and compositions related to regulation of cytokine production by glycogen synthase kinase 3 (GSK-3)” (priority 2004, dated 2011).

Entries after “also recorded” stand apart in the source; their conditions may differ.

The test system of assay [1] is NF-κB p50, NF-κB p65, CREB. Kind of assay: Nuclear NF-κB p50, NF-κB p65 and CREB binding activity (TransAM kit). The assay is classed as cell-based, human. Conditions: SB216763 pre-treatment 1 h; LPS; vs LPS alone. How it is done:
(§1) Human monocytes were pre-treated with medium only or 10 μM of SB216763 and then stimulated for the indicated time points with 1 μg/ml of E. coli LPS. The ability of E. coli LPS in the presence or absence of SB216763 to mediate the degradation and re-synthesis of (A) IκB-α and the phosphorylation of (B) NF-κB p65 (ser 276 or ser 536) were assessed by Western blot. […] The interaction of CBP with (F) NF-κB p65 and (G) CREB after treatment of cells with SB216763 (10 μM) were assessed by immunoprecipitation of CBP and probed for (F) NF-κB or (G) CREB levels by immunoblot. (H) To determine the functional effect of GSK-3 regulating CREB activity in LPS-stimulated monocytes, cells were pre-treated for 96 h with medium only, siRNA targeting CREB, or control siRNA and assayed by Western blot for the levels of CREB and total p38. (I, J) Monocytes pre-treated with medium only, siRNA control, or siRNA targeting CREB for 96 h were stimulated with E. coli LPS for 20 h and cell-free supernatants assayed by ELISA for the levels of (I) IL-10 and (J) IL-12 p40. To ensure equal protein loading, immunoblots were striped and re-probed with total p38 (A, B, H) or total CBP (F, G). For nuclear extract analysis of (C) NF-κB p65, (D) NF-κB p50, and (E) CREB, optical density values were normalized by loading a standardized amount of protein, as indicated in the figure. * indicates statistical significance at P<0.05. For A, B, E, F, G, H, and I, results are representative of 3 separate experiments. For C and D, results represent the mean±SD of 3 separate experiments.
Human monocytes in 24-well polystyrene tissue culture plates were pretreated for 1 h with SB216763 or 0.01% DMSO and then incubated with medium alone or LPS for the indicated time points. Cells were collected, washed two times in PBS, and then assayed for activity using the TransAM kit specific for the given transcription factor (Active Motif, Carlsbad, Calif.). […]

The subject of a further assay is NF-κB. Kind of assay: IκB-α degradation and NF-κB p65 phosphorylation, Western blot, LPS-stimulated monocytes. Conditions: 10 μM SB216763, 1 μg/ml E. coli LPS. The assay is classed as cell-based, human. The method, then: (§2) Human monocytes were pre-treated with medium only or 10 μM of SB216763 and then stimulated for the indicated time points with 1 μg/ml of E. coli LPS. The ability of E. coli LPS in the presence or absence of SB216763 to mediate the degradation and re-synthesis of (A) IκB-α and the phosphorylation of (B) NF-κB p65 (ser 276 or ser 536) were assessed by Western blot. […] The interaction of CBP with (F) NF-κB p65 and (G) CREB after treatment of cells with SB216763 (10 μM) were assessed by immunoprecipitation of CBP and probed for (F) NF-κB or (G) CREB levels by immunoblot. […]
To investigate the underlying cellular mechanism responsible for the ability of GSK-3 inhibition to suppress the production of pro-inflammatory cytokines while concurrently augmenting the production of the anti-inflammatory cytokine IL-10, the ability of how GSK-3 influenced the activation of downstream transcription factors involved in the inflammatory response was assessed. […] Since GSK-3 can mediate the phosphorylation of the p65 subunit of NF-κB, it was next determined if GSK-3 inhibition was exerting an effect on the phosphorylation status of the p65 subunit of NF-κB. […] Therefore, the nuclear levels of the NF-κB subunits p50 and p65 were analyzed in the presence or absence of the GSK-3 inhibitor SB216763 (FIG. 9C, D). […]

For assay [2], the system named is C57BL/6 mice. Description: Endotoxin shock model, survival after LD100 of LPS. The assay is classed as in vivo, mouse. The method, then:
Mice (sham-injected and LPS groups) were pre-treated with i.p. injection of 1 ml PBS containing 0.01% DMSO (vehicle control). SB216763-treated mice were administered 1 ml of PBS containing 30 μM of SB216763. After 2 h, mice pre-treated with SB216763 (denoted LPS+SB216763) or vehicle (denoted LPS group) were given 150 μg of LPS by i.p., injection. ** and *** indicate statistically significant differences at P<0.01 and P<0.001, respectively, as compared to LPS-treated group. Results represent the mean of 30 mice/group.
(§3) C57BL/6 mice were bred and maintained within the pathogen-free animal facility at UAB. Experimental endotoxic shock was induced in age- and sex-matched C57BL/6 mice (18 to 23 g) by intraperitoneal injection of 150 μg of LPS in PBS containing 0.1% DMSO. Mice pre-treated with the GSK-3 inhibitor SB216763 received 1 ml of PBS containing 30 μM of SB216763 (DMSO was at 0.01%) by i.p. injection. LPS-control and sham-injected mice were pre-treated (i.p. injection) with 1 ml of PBS containing 0.1% DMSO. Mice given the GSK-3 inhibitor SB216763 after LPS challenge received 1 ml of PBS containing 30 μM of SB216763 (DMSO was at 0.01%) by i.p. injection. LPS-control and sham-injected mice were administered (i.p.) 1 ml of PBS containing 0.01% DMSO. At 4 h after injection, blood from all groups of mice was obtained by retro-orbital plexus bleeding.
Male C57BL/6 mice (8 to 12 weeks of age; 18 to 23 g) were injected via the intraperitoneal route with an LD100 ([…]) of E. coli K235 LPS in 200 µl of PBS containing 0.1% DMSO. Mice were monitored over a 10 day period for survivability.

In assay [3] the test system is C57BL/6 mice. Kind of assay: In vivo cytokine production in LPS-challenged mice (plasma ELISA). Also on record: species or system mouse. To be noted: SB216763 2 h before 150 μg LPS i.p. How it is done: SB216763-treated mice were given 1 ml of PBS containing 30 μM of SB216763. Sham-injected and LPS groups were given 1 ml of PBS containing vehicle (0.01% DMSO). After 2 h, mice pre-treated with SB216763 (denoted LPS+SB216763) or vehicle (denoted LPS group) were given 150 μg of LPS by i.p., injection. *** indicates statistically significant differences at P<0.001, as compared to LPS-treated group. Results represent the mean±SD of 10 mice/group.
as §3
Human or mouse IL-1β, IL-10, IL-12 p40, and IFN-γ levels in the plasma of mice or cell-culture supernatants were determined by using enzyme-linked immunosorbent assay (ELISA) kits from R&D systems or Ebioscience according to manufacturer's instructions.
Background: In an ELISA, binding on a coated surface is turned into a signal by an enzyme label.

The test system of a further assay is human CD4+ T cells. Kind of assay: Cytokine production by anti-CD3 stimulated purified CD4+ T cells (ELISA). The assay is classed as cell-based. To be noted: plate-bound anti-CD3 10 μg/ml, 72 h. The method, then:
Supernatants were analyzed for […] (IFN-γ) and Th2- (IL-10) type cytokines by ELISA. […] Thus, inhibition of GSK-3 at the T cell level also suppresses inflammatory cytokines while increasing anti-inflammatory cytokine production. Moreover, inhibition of GSK-3 can enhance Th2-type immune responses while suppressing Th1-type responses.

The test system of the next assay is CBP. Kind of assay: Co-immunoprecipitation of CBP with NF-κB p65 and CREB. The assay is classed as cell-based, human. Conditions: SB216763 10 μM; LPS-stimulated monocytes. The method, then:
as §2, with “immunoblot. (H) To determine the functional effect of GSK-3 regulating CREB activity in LPS-stimulated monocytes, cells were pre-treated for 96 h with medium only, siRNA targeting CREB, or control siRNA and assayed by Western blot for the levels of CREB and total p38.” for “immunoblot.”
Moreover, it has been shown that GSK-3 can negatively regulate the activation and nuclear binding properties of CREB. Therefore, it was next determined how GSK-3 inhibition was regulating the ability of nuclear CREB (ser133) to bind its consensus sequence (FIG. 9E). […] Since the levels of CREB binding activity were augmented by GSK-3 inhibition, it was determined if GSK-3 inhibition was affecting the ability of CREB (ser133) and NF-κ p65 (ser276) to associate with CBP by co-immunoprecipitation (FIG. 9F, G).

The test system of another assay is human monocytes. Kind of assay: Cytokine production by E. coli LPS-stimulated monocytes (ELISA). The assay is classed as cell-based. How it is done: FIG. 2 The ability of the PI3K pathway to differentially modulate the levels of pro- and anti-inflammatory cytokines is mediated by inhibition of GSK-3. Human monocytes were pre-incubated with medium only, 10 μM SB216763, 10 mM LiCl, 200 nM Azakenpaullone, BIO (50 nM), 1 μM Akt-i, or 20 μM LY294002 for 1 h and then stimulated with 1 μg/ml of E. coli LPS for 20 h. Cell-free supernatants were collected and assessed for (A, C) IL-10, (B, D) IL-12 p40, (E) TNF-α, or (F) IL-6 production by ELISA. * and *** indicates significant differences (P<0.05 and P<0.001, respectively) compared to E. coli LPS stimulated cultures. Results represent the mean±SD of 5 separate experiments.
(A) Monocytes were pre-treated for 96 h with medium, siRNA targeting GSK-3β, or control siRNA and assayed by Western blot for the levels of total GSK-3β and total p38. (B, C) Monocytes were pre-treated with medium only, siRNA control, or siRNA targeting GSK-3β for 96 h, stimulated with E. coli LPS for 20 h, and cell-free supernatants assayed by ELISA for the levels of (B) IL-10 and (C) IL-12 p40. * indicates significant differences (P<0.05) compared to LPS stimulated cultures. Results represent the mean±SD of 3 separate experiments.
as §1, with “For nuclear extract analysis of (C) NF-κB p65, (D) NF-κB p50, and (E) CREB, optical density values were normalized by loading a standardized amount of protein, as indicated in the figure. * indicates statistical significance at P<0.05. For A, B, E, F, G, H, and I, results are representative of 3 separate experiments. For C and D, results represent the mean±SD of 3 separate experiments.” left out
Human or mouse IL-1β, IL-10, IL-12 p40, and IFN-γ levels in the plasma of mice or cell-culture supernatants were determined by using enzyme-linked immunosorbent assay (ELISA) kits from R&D systems or Ebioscience according to manufacturer's instructions. […]

Consider `Cn1cc(C2=C(c3ccc(Cl)cc3Cl)C(=O)NC2=O)c2ccccc21` [SB216763], for which, in assay [1], the “DNA-binding properties of CREB” value is given as “significant increase”, the “nuclear levels of NF-κB p50 able to bind its consensus sequence” value is “did not appear to be influenced” and the “nuclear levels of NF-κB p65 able to bind its consensus sequence” value is given as “did not appear to be influenced”. The “rate or extent of degradation or re-synthesis of IκB-α protein” value in the assay on NF-κB is on record as “failed to alter”. In the assay with NF-κB (vs LPS alone), the “level and duration of p65 phosphorylation (ser276 or ser536)” value is on record as “Neither the level nor duration”. Further, the “LPS (endotoxin) lethality (in words)” value in the assay on C57BL/6 mice [2] (given 2 h before or 2 h after LD100 of LPS) was “mediates protection; also recorded: severe attenuation”. Further, the mice survived result in the assay with C57BL/6 mice [2] (given 2 hours after LD100 of LPS, 1 ml PBS with 30 μM i.p., 0% in control-treated mice) was “approximately 55%”. For the same compound, the “mice protected from death” value with C57BL/6 mice [2] (given 2 hours before LD100 of LPS, 1 ml PBS with 30 μM i.p., 0% in control-treated mice) was “greater than 70%”. The “late deaths among survivors” value in the assay on C57BL/6 mice [2] (monitored over a 10-day period, both treatment groups) was “no late deaths”. Moreover, the “reduction of systemic levels of several pro-inflammatory cytokines” value in the assay on C57BL/6 mice [3] (IL-1β, IL-12 p40, IFN-γ, vs LPS-treated controls) is given as “more than 50%”. For the same compound, in the assay on C57BL/6 mice [3], the “in vivo (systemic) levels of IL-1β, IL-12 and IFN-γ (in words)” value is reported as “suppresses; also recorded: profound decrease”; the “in vivo levels of IL-10 (in words)” value was “enhanced”. For the same compound, in the assay with C57BL/6 mice [3] (vs LPS-treated controls), the “increase of in vivo production of IL-10” value was “more than 2 fold”. In the assay with human CD4+ T cells, the “levels of IL-10” value is listed as “significantly enhanced” and the “production of IFN-γ” value is listed as “suppress”. For the same compound, in the assay on CBP, the “levels of CREB bound to CBP” value is “potently augmented” and the “levels of p65 associated with CBP” value is “pronounced decrease”. Besides, in the assay with human monocytes (inhibitor pre-incubation 1 h, 1 μg/ml E. coli LPS 20 h), the “IL-10 levels compared to E. coli LPS-treated monocytes (in words)” value was “approximate three-fold increase”. Besides, the “reduction in IL-12 p40 levels” value in the assay with human monocytes (inhibitor pre-incubation 1 h, 1 μg/ml E. coli LPS 20 h, vs LPS alone) is reported as roughly 80%. The “level of IL-12 p40 in cultures pre-treated with siRNA against CREB (in words)” value in the assay on human monocytes (siRNA against CREB 96 h plus SB216763, LPS) is “did not appear to be altered”. In addition, the “IL-10 levels in cells pretreated with siRNA targeting CREB (in words)” value in the assay on human monocytes (siRNA targeting CREB 96 h plus SB216763, LPS, vs LPS stimulated controls) is “did not exhibit any discernible increase”.
